# From patent publication US6355799B1, “Substituted benzene compounds, process for their preparation, and herbicidal and defoliant compositions containing them” (ISK Americas Incorporated, priority 1997, dated 2002)
# Legend:
# Format in all cases: in vivo
# [1] = system: field corn (Zea mays L., var. Dekalb 535, CORN); experiment: Post-emerge test, crop safety; details: post-emerge, 14 days after application, rating scale 0-100
# Outline: (§1)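 Each test used a mechanized track sprayer delivering 187 l/ha of acetone solution at 15–1000 g ai/ha. Post-emerge foliage at 2–3 leaves was treated with added 0.25% v/v non-ionic surfactant and bottom-watered only. Injury was assessed on day 14, where 100 means total kill.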
# [2] = system: upland rice (Oryza sp., var. Tebonnet, RICE); experiment: Post-emerge test, crop safety; details: post-emerge, 14 days after application, rating scale 0-100
# Outline: as §1
# [3] = system: johnsongrass (Sorghum halepense, SORHA); experiment: Pre-emerge test, greenhouse herbicide activity screening; details: pre-emerge, 14 days after application, scale 0-100
# Outline: (§2)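 Plants grown in 10 cm pots of sandy loam mix received acetone-dissolved compounds through a moving flat-fan nozzle. Doses ranged from 15 to 1000 g ai/ha. Pre-emerge pots were seeded one day earlier, post-emerge pots 8–21 days earlier. Fourteen days on, each pot was graded 0–100 for damage.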
# [4] = system: large crabgrass (Digitaria sanguinalis, DIGSA); experiment: as above; details: pre-emerge, 14 days after application, scale 0-100
# Outline: as §2
# [5] = system: sicklepod (Cassia obtusifolia, CASOB); experiment: as above; details: pre-emerge, 14 days after application, scale 0-100
# Outline: as §2
# [6] = system: velvetleaf (Abutilon theophrasti, ABUTH); experiment: as above; details: pre-emerge, 14 days after application, scale 0-100
# Outline: as §2
# [7] = system: ivyleaf morningglory (Ipomoea hederacea, IPOHE); experiment: as above; details: pre-emerge, 14 days after application, scale 0-100
# Outline: as §2
# [8] = system: green foxtail (Setaria viridis, SETVI); experiment: as above; details: pre-emerge, 14 days after application, scale 0-100
# Outline: as §2
# [9] = system: lambsquarters (Chenopodium album, CHEAL); experiment: as above; details: pre-emerge, 14 days after application, scale 0-100
# Outline: as §2
# [10] = system: barnyardgrass (Echinochloa crus-galli, ECHCG); experiment: as above; details: pre-emerge, 14 days after application, scale 0-100
# Outline: as §2
# [11] = system: redroot pigweed (Amaranthus retroflexus, AMARE); experiment: as above; details: pre-emerge, 14 days after application, scale 0-100
# Outline: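 Sandy loam pots; pre-emerge: sown 1 d pre-spray, surface-watered after, then bottom-watered. Post-emerge: sown 8–21 d before, 2–3 leaf stage, + 0.25% v/v NIS, bottom-watered. Acetone, 187 l/ha track spray, 15–1000 g ai/ha. 0–100 injury score, day 14.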
# [12] = system: redroot pigweed (Amaranthus retroflexus, AMARE); experiment: Post-emerge test, greenhouse herbicide activity screening; details: post-emerge, 14 days after application, rating scale 0-100
# Outline: as §2
# [13] = system: large crabgrass (Digitaria sanguinalis, DIGSA); experiment: as above; details: post-emerge, 14 days after application, rating scale 0-100
# Outline: as §2
# [14] = system: sicklepod (Cassia obtusifolia, CASOB); experiment: as above; details: post-emerge, 14 days after application, rating scale 0-100
# Outline: as §2
# [15] = system: velvetleaf (Abutilon theophrasti, ABUTH); experiment: as above; details: post-emerge, 14 days after application, rating scale 0-100
# Outline: as §2
# [16] = system: ivyleaf morningglory (Ipomoea hederacea, IPOHE); experiment: as above; details: post-emerge, 14 days after application, rating scale 0-100
# Outline: as §2
# [17] = system: green foxtail (Setaria viridis, SETVI); experiment: as above; details: post-emerge, 14 days after application, rating scale 0-100
# Outline: as §2
# [18] = system: lambsquarters (Chenopodium album, CHEAL); experiment: as above; details: post-emerge, 14 days after application, rating scale 0-100
# Outline: as §2
# [19] = system: barnyardgrass (Echinochloa crus-galli, ECHCG); experiment: as above; details: post-emerge, 14 days after application, rating scale 0-100
# Outline: as §2
# [20] = system: field corn (Zea mays L., var. Dekalb 535, CORN); experiment: Pre-emerge test, crop safety; details: pre-emerge, 14 days after application, scale 0-100
# Outline: (§3)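 Compounds in acetone were track-sprayed at 187 l/ha, 15–1000 g ai/ha, onto sandy loam pots. Pre-emerge seeds were sown one day before spraying, with surface watering afterwards. Post-emerge plants were at the 2–3 leaf stage and sprayed with 0.25% v/v non-ionic surfactant. Injury was rated 0–100 at 14 days.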
# [21] = system: upland rice (Oryza sp., var. Tebonnet, RICE); experiment: Pre-emerge test, crop safety; details: pre-emerge, 14 days after application, scale 0-100
# Outline: as §3
structure (smiles),measurement,setting,value
COc1c(Cl)cc(F)c(-n2c(=O)cc(C(F)(F)F)n(C)c2=O)c1NC(=O)CCc1cc(C)ccc1C [2-132],CORN phytotoxicity rating (crop damage),[1]; 63 g ai/ha,60
same,CORN phytotoxicity rating (crop damage),[1]; 250 g ai/ha,75
same,RICE phytotoxicity rating (crop damage),[2]; 63 g ai/ha,50
same,RICE phytotoxicity rating (crop damage),[2]; 250 g ai/ha,80
same,phytotoxicity rating SORHA,[3]; 63 g ai/ha,30
same,phytotoxicity rating SORHA,[3]; 250 g ai/ha,50
same,phytotoxicity rating DIGSA,[4]; 63 g ai/ha,60
same,phytotoxicity rating DIGSA,[4]; 250 g ai/ha,100
same,phytotoxicity rating CASOB,[5]; 63 g ai/ha,50
same,phytotoxicity rating CASOB,[5]; 250 g ai/ha,100
same,phytotoxicity rating ABUTH,[6]; 63 g ai/ha,100
same,phytotoxicity rating ABUTH,[6]; 250 g ai/ha,100
same,phytotoxicity rating IPOHE,[7]; 63 g ai/ha,20
same,phytotoxicity rating IPOHE,[7]; 250 g ai/ha,40
same,phytotoxicity rating SETVI,[8]; 63 g ai/ha,90
same,phytotoxicity rating SETVI,[8]; 250 g ai/ha,100
same,phytotoxicity rating CHEAL,[9]; 63 g ai/ha,100
same,phytotoxicity rating CHEAL,[9]; 250 g ai/ha,100
same,phytotoxicity rating ECHCG,[10]; 63 g ai/ha,30
same,phytotoxicity rating ECHCG,[10]; 250 g ai/ha,40
same,phytotoxicity rating AMARE,[11]; 63 g ai/ha,100
same,phytotoxicity rating AMARE,[11]; 250 g ai/ha,100
same,AMARE phytotoxicity rating,[12]; 63 g ai/ha,100
same,AMARE phytotoxicity rating,[12]; 250 g ai/ha,100
same,DIGSA phytotoxicity rating,[13]; 63 g ai/ha,10
same,DIGSA phytotoxicity rating,[13]; 250 g ai/ha,25
same,CASOB phytotoxicity rating,[14]; 63 g ai/ha,100
same,CASOB phytotoxicity rating,[14]; 250 g ai/ha,99
same,ABUTH phytotoxicity rating,[15]; 63 g ai/ha,100
same,ABUTH phytotoxicity rating,[15]; 250 g ai/ha,100
same,IPOHE phytotoxicity rating,[16]; 63 g ai/ha,100
same,IPOHE phytotoxicity rating,[16]; 250 g ai/ha,100
same,SETVI phytotoxicity rating,[17]; 63 g ai/ha,40
same,SETVI phytotoxicity rating,[17]; 250 g ai/ha,60
same,CHEAL phytotoxicity rating,[18]; 63 g ai/ha,100
same,CHEAL phytotoxicity rating,[18]; 250 g ai/ha,100
same,ECHCG phytotoxicity rating,[19]; 63 g ai/ha,20
same,ECHCG phytotoxicity rating,[19]; 250 g ai/ha,40
same,phytotoxicity rating CORN (crop damage),[20]; 63 g ai/ha,5
same,phytotoxicity rating CORN (crop damage),[20]; 250 g ai/ha,15
same,phytotoxicity rating RICE (crop damage),[21]; 63 g ai/ha,15
same,phytotoxicity rating RICE (crop damage),[21]; 250 g ai/ha,45
